# Patent US20120088688A1, “IN VITRO ASSAY FOR IDENTIFICATION OF ALLERGENIC PROTEINS” (BIOVATOR TECHNOLOGIES AB, priority 2005, published 2012)
# Counter-ions that a name gives are not always drawn.
# System: Mono Mac 6 cells
# Assay: Micro array gene expression profiling (HG_U95Av2 chip) of Mono Mac 6 cells following allergen treatment
# Assay type: cell-based, human
# Conditions: for Number of up regulated genes: Mono Mac 6 cells
# Experimental: The cell line Mono Mac 6 (AstraZeneca Cell Storage and Retrieval, Alderley Park, UK) was cultivated in RPMI 1640 medium with 10 mM HEPES buffer (Gibco, UK), 2 mM L-glutamine, 9 μg/mL human insulin, 1.0 mM sodium pyruvate, 10% fetal bovine serum, 5.6 μl/mL glucose, 100 U/mL penicillin and 100 μg/ml streptomycin. Fresh medium for cultivation was added or changed frequently (every 2:nd or 3:rd day), maintaining a cell density of viable cells/mL between 0.5×10^6 and 1.0×10^6. The cell line was in suspension/loosely adherent and sub cultures were prepared when needed by scraping. The plates were cultivated in an inclined position at 37° C. and 5% CO2 in a Galaxy R (Lab Rum Klimat Ab, Sweden) incubator
# Cells were treated with four different allergens, according to table 2, in duplicate cultures. The test substances were all diluted in double distilled water. The duplicate cultures were treated at different exposure days. All treatments were 6 hours and control cells were left unexposed.
# 20 individual cultures with 500 000 cells per culture were treated identical for each substance. After 6 h exposure identical treated cells were harvest and pooled into a 50 ml Falcontube, pelleted at 540 g for 5 minutes in 7° C. […] The supernatant was removed and the cells were freeze-dried with liquid nitrogen and thereafter put into −152° C. freezer until further preparation.
# Experimental procedures were performed according to Gene Chip®Expression Analysis Technical Manual (rev1, 2001) with minor modifications as described. Total RNA was prepared from frozen cells, according to Qiagen Rneasy Mini kit (Qiagen/WVR, Sweden). 30 μg of total RNA was used for cDNA synthesis and in vitro transcript labeling with biotin was performed according to Enzo BioArray RNA Transcription Labeling Kit (Enzo, U.S.A). cRNA quality was analyzed on a Agilent Bioanalyser 2001 (Agilent Technologies, U.S.A) and the concentration was measured on a Nano Droop (Saveen Werner, Sweden). 15 μg of fragmented cRNA was added to the hybridization-cocktail and hybridized to the HG_U95Av2 chip (Affymetrix, U.S.A) for 16 h at 45° C. The arrays were washed and stained with biotinylated anti streptavidin antibodies according to the EukGE_W2v4 protocol (Affymetrix, U.S.A) in the fluid station (Affymetrix, U.S.A).
# Data obtained were analyzed using the MAS 5.0 model base. A detection call was calculated for all probe sets, representing if the transcript of a particular gene was present or absent, all absent genes were excluded from analysis.
# To verify outliers and trends in data exploratory analysis was made with principle component analysis (PCA). Statistic analysis was made using student's t-test. It weights the variance in individual groups with the variance in all groups. Student's t-test was used to test for statistical significance compared with control. The p-value obtained describes the probability of statistically finding a false positive probe set. Fold change (fc) represents the quotient between the two compared chip.
# The average signal value from all treated groups were compared with control signals.
# All probe sets with signal value<50 in all groups were excluded from analysis. […] The remaining probe sets were ranked after fc.
smiles,measurement,setting,value
"CC1(C)S[C@@H]2[C@H](NC(=O)Cc3ccccc3)C(=O)N2[C@H]1C(=O)O [penicillin G, Benzylpenicillin sodium salt]",Number of up regulated genes,cut off fc >2,4
same,Number of up regulated genes,cut off fc >4,1
same,Number of up regulated genes,cut off fc >6,0
same,Number of up regulated genes,cut off fc >10,0
same,"vs ctrl fc, GPR15",gene GPR15,2.2
same,"vs ctrl fc, IFITM3",gene IFITM3,3.3
same,"vs ctrl fc, XK",gene XK,2.6
same,"vs ctrl fc, c 33.28 unnamed HERV-H protein mRNA","systematic name none, c 33.28 unnamed HERV-H protein mRNA",9.1
